Data published in patent US10954232B2, “Pyrazole derivative as ALK5 inhibitor and uses thereof” (HANMI PHARMACEUTICAL CO., LTD., priority 2016, dated 2021).

Target: T1, ALK5 kinase (Homo sapiens, UniProt P36897)
T1 construct: GST; purchased Thermo Fisher Scientific Solutions
T1 sequence (P36897 34-503): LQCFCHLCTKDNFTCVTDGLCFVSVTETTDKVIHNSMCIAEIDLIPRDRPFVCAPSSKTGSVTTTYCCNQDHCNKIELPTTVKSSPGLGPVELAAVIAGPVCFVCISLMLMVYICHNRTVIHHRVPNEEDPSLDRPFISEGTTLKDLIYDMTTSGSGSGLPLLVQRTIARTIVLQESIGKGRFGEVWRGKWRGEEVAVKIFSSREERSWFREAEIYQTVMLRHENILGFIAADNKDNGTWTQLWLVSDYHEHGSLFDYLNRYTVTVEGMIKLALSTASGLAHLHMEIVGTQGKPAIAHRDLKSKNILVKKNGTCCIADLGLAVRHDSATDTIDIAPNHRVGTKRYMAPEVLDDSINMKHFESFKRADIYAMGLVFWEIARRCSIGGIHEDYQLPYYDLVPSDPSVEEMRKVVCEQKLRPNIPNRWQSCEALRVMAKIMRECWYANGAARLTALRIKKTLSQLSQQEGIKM
Test: Activity inhibition test on ALK5 enzyme (LanthaScreen Eu binding kinase assay)
Conditions: kinase tracer 178, 60 minutes at room temperature
Protocol: For each of the compounds obtained in Examples 1 to 227, inhibitory activity against ALK5 kinase was measured.
For this, a LanthaScreen Eu binding kinase assay method was used, and ALK5 kinase, a kinase buffer, a kinase tracer 178, and a LanthaScreen Eu-GST binding antibody were all purchased from Thermo Fisher Scientific Solutions. Each of the compounds was made into a 10 mM DMSO solution, and diluted by 1/10 to a concentration of 1 μM to 0.0001 μM with an aqueous solution containing 4% DMSO. The test was performed in 384 well plates (well polystyrene low volume round-bottomed plates). First, 5 μL of the diluted compound solution was added, then 5 μL of the kinase/antibody mixture solution was introduced thereto, and 5 μL of the tracer was introduced thereto. Herein, these were added to each well so that the final kinase concentration became 5 nM, the final Eu-GST binding antibody concentration 2 nM, and the kinase tracer 178 concentration 10 nM, and the result was reacted in a stirrer for 60 minutes at room temperature. Then a fluorescence value was measured using a fluorescence meter (molecular device) ([…], 665 nm emission filter). Herein, as for the degree of compound activity to inhibit the kinase reaction, a phosphorylate rate was calculated from 0% to 100% with respect to a control group according to the protocol included in the kit, and a 50% inhibitory concentration (IC50) value was calculated by obtaining the x-axis concentration in the region where 50% activity was inhibited.

Compound | IC50
Cc1cccc(-n2nc(C(=O)Nc3ccc(S(=O)(=O)NCC(F)(F)F)cc3)cc2-c2ccc3ncsc3c2)n1 [Example 58, 5-(benzo[d]thiazol-6-yl)-1-(6-methylpyridin-2-yl)-N-(4-(N-(2,2,2-trifluoroethyl)sulfamoyl)phenyl)-1H-pyrazole-3-carboxyamide] | 5.6 nM
Cc1cccc(-n2nc(C(=O)Nc3ccc(CS(C)(=O)=O)cc3)cc2-c2ccc3ncsc3c2)n1 [Example 59, 5-(benzo[d]thiazol-6-yl)-1-(6-methylpyridin-2-yl)-N-(4-((methylsulfonyl)methyl)phenyl)-1H-pyrazole-3-carboxyamide] | 20 nM
Cc1cccc(-n2nc(C(=O)Nc3cccc(CS(N)(=O)=O)c3)cc2-c2ccc3ncsc3c2)n1 [Example 60, 5-(benzo[d]thiazol-6-yl)-1-(6-methylpyridin-2-yl)-N-(3-(sulfamoylmethyl)phenyl)-1H-pyrazole-3-carboxyamide] | 13 nM
Cc1cccc(-n2nc(C(=O)Nc3ccc(CS(N)(=O)=O)cc3)cc2-c2ccc3ncsc3c2)n1 [Example 61, 5-(benzo[d]thiazol-6-yl)-1-(6-methylpyridin-2-yl)-N-(4-(sulfamoylmethyl)phenyl)-1H-pyrazole-3-carboxyamide] | 10 to 100 nM
Cc1cccc(-n2nc(C(=O)Nc3ccc(F)c(CS(N)(=O)=O)c3)cc2-c2ccc3ncsc3c2)n1 [Example 62, 5-(benzo[d]thiazol-6-yl)-N-(4-fluoro-3-(sulfamoylmethyl)phenyl)-1-(6-methylpyridin-2-yl)-1H-pyrazole-3-carboxyamide] | 16 nM
Cc1cccc(-n2nc(C(=O)Nc3ccc(NC4CCS(=O)(=O)C4)cc3)cc2-c2ccc3ncsc3c2)n1 (stereo not shown) [Example 63, 5-(benzo[d]thiazol-6-yl)-N-(4-((1,1-dioxidotetrahydrothiophen-3-yl)amino)phenyl)-1-(6-methylpyridin-2-yl)-1H-pyrazole-3-carboxyamide] | 3.7 nM
Cc1cccc(-n2nc(C(=O)Nc3ccncc3)cc2-c2ccc3ncsc3c2)n1 [Example 64, 5-(benzo[d]thiazol-6-yl)-1-(6-methylpyridin-2-yl)-N-(pyridin-4-yl)-1H-pyrazole-3-carboxyamide] | < 10 nM
COc1ccc(NC(=O)c2cc(-c3ccc4ncsc4c3)n(-c3cccc(C)n3)n2)cn1 [Example 65, 5-(benzo[d]thiazol-6-yl)-N-(6-methoxypyridin-3-yl)-1-(6-methylpyridin-2-yl)-1H-pyrazole-3-carboxyamide] | < 10 nM
COc1cc(NC(=O)c2cc(-c3ccc4ncsc4c3)n(-c3cccc(C)n3)n2)ccn1 [Example 66, 5-(benzo[d]thiazol-6-yl)-N-(2-methoxypyridin-4-yl)-1-(6-methylpyridin-2-yl)-1H-pyrazole-3-carboxyamide] | 3.2 nM
CSc1ccc(NC(=O)c2cc(-c3ccc4ncsc4c3)n(-c3cccc(C)n3)n2)cn1 [Example 67, 5-(benzo[d]thiazol-6-yl)-N-(6-(methylthio)pyridin-3-yl)-1-(6-methylpyridin-2-yl)-1H-pyrazole-3-carboxyamide] | 9.6 nM
Cc1cccc(-n2nc(C(=O)Nc3cccc(S(C)(=O)=O)n3)cc2-c2ccc3ncsc3c2)n1 [Example 68, 5-(benzo[d]thiazol-6-yl)-1-(6-methylpyridin-2-yl)-N-(6-(methylsulfonyl)pyridin-2-yl)-1H-pyrazole-3-carboxyamide] | 65 nM
Cc1cccc(-n2nc(C(=O)Nc3ccc(S(C)(=O)=O)nc3)cc2-c2ccc3ncsc3c2)n1 [Example 69, 5-(benzo[d]thiazol-6-yl)-N-(6-(methylsulfonyl)pyridin-3-yl)-1-(6-methylpyridin-2-yl)-1H-pyrazole-3-carboxyamide] | 4.9 nM
Cc1cccc(-n2nc(C(=O)Nc3ccnc(S(C)(=O)=O)c3)cc2-c2ccc3ncsc3c2)n1 [Example 70, 5-(benzo[d]thiazol-6-yl)-1-(6-methylpyridin-2-yl)-N-(2-(methylsulfonyl)pyridin-4-yl)-1H-pyrazole-3-carboxyamide] | 4.6 nM
Cc1cccc(-n2nc(C(=O)Nc3ccc(F)nc3)cc2-c2ccc3ncsc3c2)n1 [Example 71, 5-(benzo[d]thiazol-6-yl)-N-(6-fluoropyridin-3-yl)-1-(6-methylpyridin-2-yl)-1H-pyrazole-3-carboxyamide] | 8 nM
Cc1cccc(-n2nc(C(=O)Nc3ccnc(F)c3)cc2-c2ccc3ncsc3c2)n1 [Example 72, 5-(benzo[d]thiazol-6-yl)-N-(2-fluoropyridin-4-yl)-1-(6-methylpyridin-2-yl)-1H-pyrazole-3-carboxyamide] | 11 nM
Cc1cccc(-n2nc(C(=O)Nc3ccc(Cl)nc3)cc2-c2ccc3ncsc3c2)n1 [Example 73, 5-(benzo[d]thiazol-6-yl)-N-(6-chloropyridin-3-yl)-1-(6-methylpyridin-2-yl)-1H-pyrazole-3-carboxyamide] | 5.8 nM
Cc1cccc(-n2nc(C(=O)Nc3ccnc(Cl)c3)cc2-c2ccc3ncsc3c2)n1 [Example 74, 5-(benzo[d]thiazol-6-yl)-N-(2-chloropyridin-4-yl)-1-(6-methylpyridin-2-yl)-1H-pyrazole-3-carboxyamide] | 2.3 nM
Cc1cccc(-n2nc(C(=O)Nc3nccs3)cc2-c2ccc3ncsc3c2)n1 [Example 75, 5-(benzo[d]thiazol-6-yl)-1-(6-methylpyridin-2-yl)-N-(thiazol-2-yl)-1H-pyrazole-3-carboxyamide] | 7.4 nM
Cc1cccc(-n2nc(C(=O)NCc3ccccc3)cc2-c2ccc3ncsc3c2)n1 [Example 76, 5-(benzo[d]thiazol-6-yl)-N-benzyl-1-(6-methylpyridin-2-yl)-1H-pyrazole-3-carboxyamide] | ~10 nM
Cc1cccc(-n2nc(C(=O)NCc3ccccc3F)cc2-c2ccc3ncsc3c2)n1 [Example 77, 5-(benzo[d]thiazol-6-yl)-N-(2-fluorobenzyl)-1-(6-methylpyridin-2-yl)-1H-pyrazole-3-carboxyamide] | 7.2 nM
Cc1cccc(-n2nc(C(=O)NCc3cccc(F)c3)cc2-c2ccc3ncsc3c2)n1 [Example 78, 5-(benzo[d]thiazol-6-yl)-N-(3-fluorobenzyl)-1-(6-methylpyridin-2-yl)-1H-pyrazole-3-carboxyamide] | 3.4 nM
Cc1cccc(-n2nc(C(=O)NCc3ccc(F)cc3)cc2-c2ccc3ncsc3c2)n1 [Example 79, 5-(benzo[d]thiazol-6-yl)-N-(4-fluorobenzyl)-1-(6-methylpyridin-2-yl)-1H-pyrazole-3-carboxyamide] | 5.6 nM
Cc1cccc(-n2nc(C(=O)Nc3cnn(S(C)(=O)=O)c3)cc2-c2ccc3ncsc3c2)n1 [Example 80, 5-(benzo[d]thiazol-6-yl)-1-(6-methylpyridin-2-yl)-N-(1-(methylsulfonyl)-1H-pyrazol-4-yl)-1H-pyrazole-3-carboxyamide] | 1.3 nM
Cc1cccc(-n2nc(C(=O)Nc3cnn(S(=O)(=O)C4CC4)c3)cc2-c2ccc3ncsc3c2)n1 [Example 81, 5-(benzo[d]thiazol-6-yl)-N-(1-(cyclopropylsulfonyl)-1H-pyrazol-4-yl)-1-(6-methylpyridin-2-yl)-1H-pyrazole-3-carboxyamide] | 1.5 nM
Cc1cccc(-n2nc(C(=O)Nc3cccc(O)c3)cc2-c2ccc3ncsc3c2)n1 [Example 82, 5-(benzo[d]thiazol-6-yl)-N-(3-hydroxyphenyl)-1-(6-methylpyridin-2-yl)-1H-pyrazole-3-carboxyamide] | 2.7 nM
